Results as given in patent US20260158009A1 (GENZYME CORPORATION, priority 2023, published 2026).

Legend:
[1] = target: T1, hRIPK1 (aa 1-375) fusion protein (Homo sapiens, UniProt Q13546); assay: ADP-Glo kinase assay: catalytic activity of RIPK1 (autophosphorylation, conversion of ATP to ADP); assay type: biochemical
T1 construct: hRIPK1 (aa 1-375) fusion protein
T1 sequence (Q13546 1-375): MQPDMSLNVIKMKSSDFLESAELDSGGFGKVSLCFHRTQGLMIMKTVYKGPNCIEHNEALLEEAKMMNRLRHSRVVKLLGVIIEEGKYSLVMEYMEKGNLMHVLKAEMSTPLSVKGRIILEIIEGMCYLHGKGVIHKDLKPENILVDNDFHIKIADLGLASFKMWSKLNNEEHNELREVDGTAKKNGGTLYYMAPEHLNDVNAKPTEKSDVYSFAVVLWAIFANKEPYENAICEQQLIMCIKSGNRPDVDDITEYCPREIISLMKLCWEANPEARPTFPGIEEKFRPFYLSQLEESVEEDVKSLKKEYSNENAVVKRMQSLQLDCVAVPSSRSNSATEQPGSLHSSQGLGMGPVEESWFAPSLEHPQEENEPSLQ
Method in brief: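 The readout was ADP-Glo luminescence after a 240 min rt autophosphorylation reaction with 50 μM ATP, following 30 min preincubation of 3.6 μg/ml hRIPK1 (aa 1-375) fusion with compound at 33300-1.69 nM final in 1% DMSO. Values came from Levenberg-Marquardt nonlinear fits.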

U937 cells = assay: Cellular assay in U937 cells: activity of RIPK1 inhibitors on TNFα/zVAD.fmk-induced cell death (necroptosis), CellTiter 96 AQueous (MTS) readout; assay type: cell-based; settings: Homo sapiens, U-937
Method in brief: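 Necroptosis was measured by viable-cell MTS reduction (4 h, absorbance 490 nm) after overnight (18–24 h) 37° C culture. Cell suspensions of U937 cells carried TNFα (100 ng/ml) plus zVAD.fmk (50 μM) before compound was added. A 10-point curve (10 μM–0.26 nM or 1 μM–0.07 nM) was run in duplicate, normalised to the control lacking TNFα/zVAD.fmk.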

Row | Structure (SMILES) | IC50 [1] [nM] | IC50 (U937 cells) [nM]
1 | Cc1ccc([C@@H]2CCON2C(=O)[C@H]2CC[C@H](Cc3ccc4nnc(C)n4c3C)CC2)cn1 [compound 376, [4-(3,5-Dimethyl-[1,2,4]triazolo[4,3-a]pyridin-6-ylmethyl)-cyclohexyl]-[(S)-3-(6-methyl-pyridin-3-yl)-isoxazolidin-2-yl]-methanone] | 75 | 90
2 | O=C([C@H]1CC[C@H](Cc2cncnc2)CC1)N1OCC[C@H]1c1cnccn1 [compound 248, trans-[(3S)-3-pyrazin-2-ylisoxazolidin-2-yl]-[4-(pyrimidin-5-ylmethyl)cyclohexyl]methanone] | 73 | 666
3 | N#Cc1cc(F)cc([C@@H]2CCON2C(=O)[C@H]2CC[C@H](Cn3ccc4ncc(OC5COC5)cc43)CC2)c1 [compound 146, trans-3-fluoro-5-[(3S)-2-[4-[[6-(oxetan-3-yloxy)pyrrolo[3,2-b]pyridin-1-yl]methyl]cyclohexanecarbonyl]isoxazolidin-3-yl]benzonitrile] | 28 | 26
4 | Cc1cc(C[C@H]2CC[C@H](C(=O)N3OCC[C@H]3c3cc(F)cc(C#N)c3)CC2)nc(C)n1 [compound 312, 3-[(3S)-2-[4-[(2,6-dimethylpyrimidin-4-yl)methyl]cyclohexanecarbonyl]isoxazolidin-3-yl]-5-fluoro-benzonitrile] | 38 | 20
5 | Cc1cc(C[C@H]2CC[C@H](C(=O)N3OCC[C@H]3c3csc(C)n3)CC2)c(C)cn1 [compound 366, trans-[4-(2,5-Dimethyl-pyridin-4-ylmethyl)-cyclohexyl]-[(S)-3-(2-methyl-thiazol-4-yl)-isoxazolidin-2-yl]-methanone] | 40 | 11
6 | O=C([C@H]1CC[C@H](Cn2cnc3ccc(F)cc32)CC1)N1OCC[C@H]1c1cc(F)cc(F)c1 [compound 113, trans-((S)-3-(3,5-difluorophenyl)isoxazolidin-2-yl)(4-((6-fluoro-1H-benzo[d]imidazol-1-yl)methyl)cyclohexyl)methanone] | 24 | 3
7 | Cc1nn(C[C@H]2CC[C@H](C(=O)N3OCC[C@H]3c3cc(F)cc(F)c3)CC2)c2cc(C(N)=O)cc(F)c12 [compound 103, trans-1-((4-((S)-3-(3,5-difluorophenyl)isoxazolidine-2-carbonyl)cyclohexyl)methyl)-4-fluoro-3-methyl-1H-indazole-6-carboxamide] | 23 | 22
8 | Cc1ncc(C[C@H]2CC[C@H](C(=O)N3OCC[C@H]3c3cc(F)cc(C#N)c3)CC2)cn1 [compound 263, trans-3-fluoro-5-[(3S)-2-[4-[(2-methylpyrimidin-5-yl)methyl]cyclohexanecarbonyl]isoxazolidin-3-yl]benzonitrile] | 41 | 59
9 | Cc1ccc([C@@H]2CCON2C(=O)[C@H]2CC[C@H](Cc3cnc(C)nc3)CC2)cn1 [compound 344, trans-[(3S)-3-(6-methylpyridin-3-yl)-1,2-oxazolidin-2-yl]-[4-[(2-methylpyrimidin-5-yl)methyl]cyclohexyl]methanone] | 243 | 173
10 | N#Cc1ccc2cn(C[C@H]3CC[C@H](C(=O)N4OCC[C@H]4c4cnccn4)CC3)nc2c1 [compound 196, trans-2-[[4-[(3S)-3-pyrazin-2-ylisoxazolidine-2-carbonyl]cyclohexyl]methyl]indazole-6-carbonitrile] | 75 | 379
11 | Cc1cn2cc(C[C@H]3CC[C@H](C(=O)N4OCC[C@H]4c4csc(C)n4)CC3)cc(F)c2n1 [compound 370, trans-[4-(8-Fluoro-2-methyl-imidazo[1,2-a]pyridin-6-ylmethyl)-cyclohexyl]-[(S)-3-(2-methyl-thiazol-4-yl)-isoxazolidin-2-yl]-methanone] | 34 | 21

Compounds with a lower IC50 [1], results first:

Row | IC50 [1] [nM] | Structure (SMILES) | IC50 (U937 cells) [nM]
12 | 11 | Cc1nc2c(F)cc(C[C@H]3CC[C@H](C(=O)N4OCC[C@H]4c4cc(F)cc(F)c4)CC3)cn2n1 [compound 285, trans-[(3S)-3-(3,5-difluorophenyl)isoxazolidin-2-yl]-[4-[(8-fluoro-2-methyl-[1,2,4]triazolo[1,5-a]pyridin-6-yl)methyl]cyclohexyl]methanone] | 10
13 | 12 | Cc1ncc(C[C@H]2CC[C@H](C(=O)N3OCC[C@H]3c3cc(F)cc(F)c3)CC2)cc1C#N [compound 267, trans-5-[[4-[(3S)-3-(3,5-difluorophenyl)isoxazolidine-2-carbonyl]cyclohexyl]methyl]-2-methyl-pyridine-3-carbonitrile] | 2
14 | 19 | Cc1ccc(C[C@H]2CC[C@H](C(=O)N3OCC[C@H]3c3cc(F)cc(C#N)c3)CC2)cc1C#N [compound 109, trans-5-((4-((S)-3-(3-cyano-5-fluorophenyl)isoxazolidine-2-carbonyl)cyclohexyl)methyl)-2-methylbenzonitrile] | 1
15 | 18 | Cc1nc([C@@H]2CCON2C(=O)[C@H]2CC[C@H](Cn3ncc4ncc(C#N)cc43)CC2)cs1 [compound 199, trans-1-[[4-[(3S)-3-(2-methylthiazol-4-yl)isoxazolidine-2-carbonyl]cyclohexyl]methyl]pyrazolo[4,3-b]pyridine-6-carbonitrile] | 51
16 | 16 | N#Cc1cc(F)cc([C@@H]2CCON2C(=O)[C@H]2CC[C@H](Cc3cc(F)c4ncnn4c3)CC2)c1 [compound 206, trans-3-fluoro-5-[(3S)-2-[4-[(8-fluoro-[1,2,4]triazolo[1,5-a]pyridin-6-yl)methyl]cyclohexanecarbonyl]isoxazolidin-3-yl]benzonitrile] | 9
17 | 8 | O=C([C@H]1CC[C@H](Cc2cc(F)cc(CO)c2)CC1)N1OCC[C@H]1c1cnccn1 [compound 259, trans-[4-[[3-fluoro-5-(hydroxymethyl)phenyl]methyl]cyclohexyl]-[(3S)-3-pyrazin-2-ylisoxazolidin-2-yl]methanone] | 2
18 | 6 | N#Cc1cc(F)cc([C@@H]2CCON2C(=O)[C@H]2CC[C@H](Cn3ccc4ncc(OCCO)cc43)CC2)c1 [compound 153, trans-3-fluoro-5-[(3S)-2-[4-[[6-(2-hydroxyethoxy)pyrrolo[3,2-b]pyridin-1-yl]methyl]cyclohexanecarbonyl]isoxazolidin-3-yl]benzonitrile] | 3
19 | 19 | N#Cc1cc(F)cc([C@@H]2CCON2C(=O)[C@H]2CC[C@H](Cn3ncc4ccc(C#N)cc43)CC2)c1 [compound 28, trans-1-((4-((S)-3-(3-cyano-5-fluorophenyl)isoxazolidine-2-carbonyl)cyclohexyl)methyl)-1H-indazole-6-carbonitrile] | 3
20 | 20 | O=c1oc2ccccc2n1C[C@H]1CC[C@H](C(=O)N2OCC[C@H]2c2cc(F)cc(F)c2)CC1 [compound 20, trans-3-((4-((S)-3-(3,5-difluorophenyl)isoxazolidine-2-carbonyl)cyclohexyl)methyl)benzo[d]oxazol-2(3H)-one] | 5
21 | 15 | Cc1ccc([C@@H]2CCON2C(=O)[C@H]2CC[C@H](Cc3ccc(C)c(C(N)=O)c3)CC2)cc1 [compound 131, trans-2-methyl-5-[[4-[(3S)-3-(p-tolyl)isoxazolidine-2-carbonyl]cyclohexyl]methyl]benzamide] | 5
22 | 17 | N#Cc1cncc([C@@H]2CCON2C(=O)[C@H]2CC[C@H](Cn3ccc4cc(C(N)=O)ccc43)CC2)c1 [compound 252, trans-1-[[4-[(3S)-3-(5-cyano-3-pyridyl)isoxazolidine-2-carbonyl]cyclohexyl]methyl]indole-5-carboxamide] | 54
23 | 5 | Cn1ncc2ncc(C[C@H]3CC[C@H](C(=O)N4OCC[C@H]4c4cc(F)cc(C#N)c4)CC3)cc21 [compound 296, trans-3-fluoro-5-[(3S)-2-[4-[(1-methylpyrazolo[4,3-b]pyridin-6-yl)methyl]cyclohexanecarbonyl]isoxazolidin-3-yl]benzonitrile] | 2
24 | 15 | N#Cc1cc2cnn(C[C@H]3CC[C@H](C(=O)N4OCC[C@H]4c4cc(F)cc(F)c4)CC3)c2cc1F [compound 67, trans-1-((4-((S)-3-(3,5-difluorophenyl)isoxazolidine-2-carbonyl)cyclohexyl)methyl)-6-fluoro-1H-indazole-5-carbonitrile] | 2
25 | 21 | Cc1nc2cc(C[C@H]3CC[C@H](C(=O)N4OCC[C@H]4c4cccc(C#N)c4)CC3)ccn2n1 [compound 1, trans-3-[(3S)-2-[4-[(2-methyl-[1,2,4]triazolo[1,5-a]pyridin-7-yl)methyl]cyclohexanecarbonyl]isoxazolidin-3-yl]benzonitrile] | 29
26 | 20 | Cc1nc2c(C)cc(C[C@H]3CC[C@H](C(=O)N4OCC[C@H]4c4cnc(C)c(F)c4)CC3)cn2n1 [compound 330, trans-[4-[(2,8-dimethyl-[1,2,4]triazolo[1,5-a]pyridin-6-yl)methyl]cyclohexyl]-[(3S)-3-(5-fluoro-6-methylpyridin-3-yl)-1,2-oxazolidin-2-yl]methanone] | 18
